In patent US20200281989A1, “METHOD OF PREPARING A COMPOSITION FOR TREATING CANCER” (priority 2019, published 2020):

Columns and labels:
Capan2 cells = assay: Proliferation of Capan2 pancreatic cancer cells; format: cell-based, human; settings: F6 5-50 μg/ml for 72 hours, FIG. 18A
[1] = tested on: human pancreatic cancer cells (Panc-1 cells); assay: Cell growth inhibition, Panc-1 pancreatic cancer cells; format: cell-based; settings: F6 5-50 μg/ml for 72 hours, FIG. 18A
[2] = tested on: human leukemia K562 cells; assay: WST-1 cell proliferation assay, K562 leukemia cells; format: cell-based; settings: for anti-proliferative effect on leukemic K562 cells: WST-1, FIGS. 3B, 4A
Procedure: The graphs show results of different concentrations of the compounds using the WST-1 spectrophotometric detection assay. WST is a colorimetric assay to assess cell proliferation under different treatment conditions. This assay is based on the cleavage of a tetrazolium salt (2-(4-Iodophenyl)-3-(4-nitrophenyl)-5-phenyl-2h-tetrazolium chloride) to form formazan (a colored compound) by mitochondrial dehydrogenases in viable cells. As a result, the assay measures the net metabolic activity of the cells. Human leukemia K562 cell line was purchased from ATCC (Manassas, Va., USA) and plated a day before the experiment in normal growth medium. The next day, the medium was replaced with serum free medium (Gibco #11835-030) to starve the cells for 4 h. Cells were deprived of serum for 4 h before treatment with the lipids to eliminate binding of the compounds to serum proteins. After starvation, K562 cells were then centrifuged. The medium was replaced with fresh IMDM media containing 1% (v/v) FBS and 100 units of PS. Cells (1×104 in 100 L) were seeded into each well with conditioned medium for overnight (20 h) in a 96-well plate to which the test compounds (−ve control ethanol, Ft-3, F-6 and S5) were added at the concentrations indicated. A volume of 10 uL WST-1, cell proliferation assay reagent (Roche Diagnostics, Indianapolis, Ind., USA), was added to each well and incubated for 4 h, and then the wells were read on a plate reader at 450 nm with a reference reading at 650 nm. Reference reading at 650 nm was used for subtracting background readouts.
Another embodiment of the anti-cancer oral composition was prepared by combining lipid Fraction 3 of the neutral lipid fraction and ethanol in a ratio of 20 μg/μL to provide a mixture. The mixture was prepared by dissolving Fraction 3 in pure ethanol then diluting it to the desired concentration with culture medium. Cells (1×10^4) were starved overnight in serum-free medium, then the medium was replaced prior to incubation with IMDM/1% FBS/pen-strep. […]

Panc-1 cells [3] = assay: Apoptosis induction (cell cycle, caspase-3), pancreatic cancer cells; format: cell-based, human; settings: FIGS. 18A-18F
breast MCF-7 cells = assay: WST-1 cell proliferation assay, MCF-7 breast cancer cells; format: cell-based, human; settings: WST-1, FIG. 4B
Procedure: FIG. 4B is a graph showing the effect of fraction 3 of the neutral lipids, furan (F6), and a steroid found in fraction 3 of the neutral lipids, (S5) and the two isolated components from fraction 3 of the neutral lipids on breast MCF-7 cells using the WST-1 spectrophotometric detection assay. WST was performed to assess cell proliferation under different treatment conditions. The assay measured the net metabolic activity of the cells. Human breast MCF-7 cell line was purchased from ATCC (Manassas, Va., USA). 1×10^4 cells/well/100 L) and were plated a day before experiment in normal growth medium. The next day, the medium was replaced with serum free medium (Gibco #11835-030) to starve the cells for 4 h. Cells were deprived of serum for 4 h before treatment with the lipids to eliminate binding of the compounds to serum proteins. After starvation, the medium was replaced with fresh IMDM media containing 1% (v/v) FBS and 100 units of PS. Cells (1×104 in 100 L) were seeded into each well with conditioned medium overnight (20 h) in a 96-well plate to which the test compounds (−ve control ethanol, Fr-3 of the neutral lipids, F6 and S5) were added at the concentrations indicated. […] Then, the wells were read on a plate reader at 450 nm with a reference reading at 650 nm. Reference reading at 650 nm was used for subtracting background readouts.

Hep3B cells = assay: Invasion chamber (transwell) assay / metastatic potential, Hep3B cells; format: cell-based, human; settings: FIGS. 17A-17E
Procedure: (§1) Another embodiment of the anti-cancer oral composition was prepared by combining lipid Fraction 1 with ethanol to provide a first mixture in a ratio of 5 μg/mL, a second mixture in a ratio of 10 μg/mL, and a third mixture in a ratio of 25 μg/mL. The mixtures and a control (0.1% ethanol) were tested for inhibition of metastatic potential of cancer Hep3B cell line (FIGS. 13A-13E) and cancer Panc-1 cell line (FIGS. 13F-131).
(§2) An aliquot of 0.5 ml Hep3B or Panc-1 cell suspension in serum-free medium with BSA (1 mg/ml) containing 6×10^4 cells/ml was mixed with F6 and then applied to each invasion chamber. An aliquot of 0.5 ml medium with 10% serum was loaded into the bottom of the well. After incubation for 6 hours, cells that invaded to the bottom surface of the transwell were fixed with 70% ethanol, stained with Diff Quik solution (Sysmex), and counted in five selected fields.

Panc-1 cells [4] = assay: Invasion chamber (transwell) assay, Panc-1 cells; format: cell-based, human; settings: concentration dependent, 6 hours incubation, FIGS. 19A-19B
Procedure: as §1, §2

[5] = tested on: human breast cancer cells MDA MB-231; assay: WST-1 cell proliferation assay, MDA MB-231 breast cancer cells; format: cell-based; settings: WST-1, FIG. 4C
Procedure: FIG. 4C is a graph showing the effect of fraction 3 of the neutral lipids, furan (F6), and a steroid (S5) on human breast cancer cells MDA MB-231 using the WST-1 spectrophotometric detection assay. The assay measured the net metabolic activity of the cells. Human breast MDA MB-231 cell line was purchased from ATCC (Manassas, Va., USA). MCF-7 and 1_x 10^4 cells/well/100 uL) and were plated a day before experiment in normal growth medium. The next day, medium was replaced with serum free medium (Gibco #11835-030) to starve the cells for 4 h. Cells were deprived of serum for 4 h before treatment with the lipids to eliminate binding of the compounds to serum proteins. After starvation, Cells (1_x 104 in 100 L) were seeded into each well with conditioned medium overnight (20 h) in a 96-well plate to which the test compounds (−ve control ethanol, Ft-3, F-6 and S5) were added at the concentrations indicated. A volume of 10 uL WST-1, cell proliferation assay reagent (Roche Diagnostics, Indianapolis, Ind., USA), was added to each well and incubated for 4 h. Then, the wells were read on a plate reader at 450 nm with a reference reading at 650 nm. Reference reading at 650 nm was used for subtracting background readouts.

BxPC3 cells = assay: Proliferation of BxPC3 pancreatic cancer cells; format: cell-based, human; settings: F6 5-50 μg/ml for 72 hours, FIG. 18A

Structure (SMILES) | inhibition of proliferation of Capan2 cells (Capan2 cells) | inhibition of proliferation of Panc-1 cells [1] | anti-proliferative effect on leukemic K562 cells [2] | mechanism of regulation of pancreatic cancer cell growth (Panc-1 cells [3]) | anti-proliferative effect on breast MCF-7 cells (breast MCF-7 cells) | Hep3B cell metastasis (markers migration and invasion) (Hep3B cells) | invasion of Panc-1 cells (Panc-1 cells [4]) | anti-proliferative effect on breast MDA MB-231 cells [5] | inhibition of proliferation of BxPC3 cells (BxPC3 cells) | effect of combination of Fraction 3 and Gleevec on K562 cell survival ([2]; Gleevec 2 uM with Fraction 3, WST-1, FIG. 3B)
CCCCCc1oc(CCCCCCCCCCC(=O)O)c(C)c1C [Fraction F6, 12,15-epoxy-13,14-dimethyleicosa-12,14-dienoic acid] | potently inhibited proliferation | potently inhibited proliferation | anti-proliferative effects | induction of apoptosis | anti-proliferative effects | inhibit cancer Hep3B cell metastasis | inhibited invasion | anti-proliferative effects | potently inhibited proliferation | –
CC(C)CCC[C@@H](C)[C@H]1CC[C@H]2[C@@H]3CC=C4C=CCC[C@]4(C)[C@H]3CC[C@]12C [Fraction S5, cholesta-3,5-diene] | – | – | anti-proliferative effects | – | anti-proliferative effects | inhibit cancer Hep3B cell metastasis | – | anti-proliferative effects | – | –
Cc1ccc(NC(=O)c2ccc(CN3CCN(C)CC3)cc2)cc1Nc1nccc(-c2cccnc2)n1 [Gleevec, reference compound] | – | – | – | – | – | – | – | – | – | potentiated the anti-proliferative effect
